Test systems include RPMI-8226 leukemia; A549 NSCLC; SK-MEL-5 melanoma; U251 CNS; EKVX NSCLC; HCT-116 colon; SNB-19 CNS; TK-10 renal; HCC-2998 colon; UACC-62 melanoma; T-47D breast; NCI-H23 lung; SNB-75 CNS; SK-MEL-2 melanoma; HOP-62 NSCLC; PC-3 prostate; UO-31 renal; HCT-15 colon; SR leukemia; A498 renal.
Test in all cases: NCI tumour cell line growth inhibition, 48 h

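These data come from cells grown in 96-well plates and exposed to compound for 48 hours at five concentrations. At the TGI there is no net growth.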 Some results are limits rather than exact numbers.

For the compound `Cc1ccc(/C=C2\NC(=S)NC2=O)cc1`, the TGI in the experiment with RPMI-8226 leukemia, with A549 NSCLC, with SK-MEL-5 melanoma, with U251 CNS, in the experiment on EKVX NSCLC and with HCT-116 colon was above 100 µM each time. The TGI in the experiment on SNB-19 CNS, with TK-10 renal, with HCC-2998 colon, in the experiment on UACC-62 melanoma, in the experiment on T-47D breast and in the experiment on NCI-H23 lung was above 100 µM each time. Further, the TGI in the experiment with SNB-75 CNS, in the experiment on SK-MEL-2 melanoma, in the experiment on HOP-62 NSCLC, in the experiment on PC-3 prostate, in the experiment with UO-31 renal and in the experiment on HCT-15 colon was above 100 µM in each case.

Turning to `O=c1cc(-c2ccccc2)[nH]c2cc(F)cc(F)c12`, the TGI with SR leukemia, in the experiment on RPMI-8226 leukemia, in the experiment on A549 NSCLC, in the experiment on SK-MEL-5 melanoma, in the experiment on U251 CNS and in the experiment on HCT-116 colon was above 100 µM throughout. For the same compound, the TGI in the experiment with TK-10 renal is above 100 µM; in the experiment with UACC-62 melanoma, 63.9 µM; in the experiment on NCI-H23 lung, above 100 µM; with SNB-75 CNS, 46.9 µM; in the experiment on SK-MEL-2 melanoma, 84.4 µM; in the experiment with HOP-62 NSCLC, above 100 µM. The TGI with UO-31 renal and with HCT-15 colon was above 100 µM in each case.

Take `CCC(C)C(N)C(=O)N/N=C\c1c2c(nc3ccccc13)-c1cc3c(c(=O)n1C2)COC(=O)[C@]3(O)CC` (some centres not stated): the TGI was 11.4 µM in the experiment on RPMI-8226 leukemia; 14.2 µM with A549 NSCLC; 0.452 µM with SK-MEL-5 melanoma; 0.669 µM with U251 CNS; above 100 µM in the experiment with EKVX NSCLC; 2.96 µM in the experiment with HCT-116 colon. Besides, the TGI is 0.69 µM in the experiment on SNB-19 CNS; above 100 µM with TK-10 renal; 15.2 µM with HCC-2998 colon; 0.106 µM with UACC-62 melanoma; 0.188 µM in the experiment on T-47D breast; 0.401 µM in the experiment on NCI-H23 lung. Further, the TGI in the experiment with A498 renal is 1.43 µM; with SNB-75 CNS it was 13.3 µM; in the experiment with SK-MEL-2 melanoma, 6.59 µM; in the experiment with HOP-62 NSCLC, 1.15 µM; in the experiment on PC-3 prostate, above 100 µM; in the experiment on UO-31 renal, 1.4 µM. This compound returned a TGI in the experiment with HCT-15 colon above 100 µM.

As for `c1ccc2cc3c(NC4=NCCO4)cccc3cc2c1`, the TGI in the experiment with SR leukemia, in the experiment on RPMI-8226 leukemia, in the experiment on A549 NSCLC, in the experiment on SK-MEL-5 melanoma, in the experiment on U251 CNS and with EKVX NSCLC was above 100 µM each time. For the same compound, the TGI in the experiment on HCT-116 colon, with SNB-19 CNS, in the experiment with TK-10 renal, in the experiment with UACC-62 melanoma, in the experiment with NCI-H23 lung and with A498 renal was above 100 µM each time. The TGI with SNB-75 CNS, in the experiment with SK-MEL-2 melanoma, with HOP-62 NSCLC, with PC-3 prostate, with UO-31 renal and with HCT-15 colon was above 100 µM in each case.

For `CC(=O)C(C)C(=O)N1C(=O)N(C)C2(C)N(C)C(=O)NC12C` (configuration not stated), the TGI with SR leukemia, in the experiment on RPMI-8226 leukemia, in the experiment with A549 NSCLC, in the experiment with SK-MEL-5 melanoma, in the experiment with U251 CNS and in the experiment on EKVX NSCLC was above 100 µM each time. Further, the TGI with HCT-116 colon, in the experiment with SNB-19 CNS, in the experiment on TK-10 renal, with HCC-2998 colon, in the experiment with UACC-62 melanoma and in the experiment with NCI-H23 lung was above 100 µM in each case. Further, the TGI in the experiment with SNB-75 CNS, in the experiment on SK-MEL-2 melanoma, with HOP-62 NSCLC, with UO-31 renal and in the experiment on HCT-15 colon was above 100 µM throughout.

Turning to `Nc1ccc(-c2nc3ccc(F)cc3s2)cc1Cl`, the TGI with SR leukemia, in the experiment with RPMI-8226 leukemia, with A549 NSCLC, in the experiment with SK-MEL-5 melanoma, with U251 CNS and with EKVX NSCLC was above 100 µM throughout. Further, the TGI in the experiment with SNB-19 CNS, with TK-10 renal, with HCC-2998 colon, in the experiment on UACC-62 melanoma, with NCI-H23 lung and with A498 renal was above 100 µM throughout. In addition, the TGI is above 59.9 µM in the experiment with SNB-75 CNS; above 100 µM in the experiment on SK-MEL-2 melanoma; above 100 µM in the experiment with HOP-62 NSCLC; above 100 µM in the experiment with PC-3 prostate; above 100 µM in the experiment on UO-31 renal; above 100 µM with HCT-15 colon.

As to `CC(C)(C)OC(=O)N1NC(c2ccccc2)CC1c1ccccc1` (configuration not stated), the TGI in the experiment on SR leukemia was above 100 µM; in the experiment with RPMI-8226 leukemia, above 100 µM; in the experiment on A549 NSCLC it was 32.9 µM; with SK-MEL-5 melanoma, 45.5 µM; in the experiment on EKVX NSCLC it was above 100 µM; in the experiment with HCT-116 colon it was above 100 µM. Further, the TGI with TK-10 renal was above 100 µM; in the experiment with HCC-2998 colon, above 100 µM; in the experiment with UACC-62 melanoma it was 88.1 µM; with T-47D breast, 56.2 µM; in the experiment on NCI-H23 lung, 40.4 µM; in the experiment with A498 renal, 74.4 µM. For the same compound, the TGI in the experiment with SNB-75 CNS is 76.7 µM; with HOP-62 NSCLC, above 100 µM; in the experiment on UO-31 renal, 53.2 µM; with HCT-15 colon, 60.1 µM.

As to `O=c1[nH]nc(Cc2ccccc2)n1/N=C/c1ccco1`, the TGI with RPMI-8226 leukemia, in the experiment on A549 NSCLC, in the experiment on U251 CNS, with EKVX NSCLC, in the experiment on HCT-116 colon and with SNB-19 CNS was above 100 µM in each case. In addition, the TGI in the experiment on HCC-2998 colon, in the experiment with UACC-62 melanoma, in the experiment on T-47D breast, in the experiment on NCI-H23 lung, in the experiment with A498 renal and in the experiment with SNB-75 CNS was above 100 µM in each case. Also, the TGI in the experiment on SK-MEL-2 melanoma, in the experiment with HOP-62 NSCLC, in the experiment on PC-3 prostate, with UO-31 renal and with HCT-15 colon was above 100 µM each time.

The values above are taken from PubChem BioAssay (NCI).
